This is an account of results in patent US20080200454A1, “CARBON-LINKED TETRAHYDRO-PYRAZOLO-PYRIDINE MODULATORS OF CATHEPSIN S” (priority 2007, published 2008).

This experiment concerns the target Recombinant human cathepsin S (CatS) (Homo sapiens, UniProt P25774). In words: Recombinant human cathepsin S (CatS) inhibition assay, fluorogenic substrate Z-Valine-Valine-Arginine-AMC.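 Also: Baculovirus-expressed CatS in pH 5.0 sodium acetate buffer with DTT and NaCl, fluorescence read each minute over 20 min, inhibition derived from rate slope.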

Counter-ions that a name gives are not always drawn. Like-named read-outs stand apart in the source and are kept apart here.

Sequence of Recombinant human cathepsin S (CatS) (P25774 115-331): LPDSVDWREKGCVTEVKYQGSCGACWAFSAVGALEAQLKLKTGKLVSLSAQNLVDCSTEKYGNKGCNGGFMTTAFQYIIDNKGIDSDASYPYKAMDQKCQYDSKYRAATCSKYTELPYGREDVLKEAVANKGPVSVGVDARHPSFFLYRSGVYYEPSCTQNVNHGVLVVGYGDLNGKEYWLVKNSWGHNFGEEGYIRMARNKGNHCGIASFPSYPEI

The term IC50 denotes the concentration that inhibits the measured activity by half. `CS(=O)(=O)N1CCc2c(c(-c3ccc(Cl)c(C#Cc4cccc5c4CNCC5)c3)nn2CCCN2CCOCC2)C1` [Example 366, 8-({2-Chloro-5-[5-(methylsulfonyl)-1-(3-morpholin-4-ylpropyl)-4,5,6,7-tetrahydro-1H-pyrazolo[4,3-c]pyridin-3-yl]phenyl}ethynyl)-1,2,3,4-tetrahydroisoquinoline]: the IC50 was found to be 680 nM. Same read-out and setting: the result for `C[C@H]1COCCN1CCCn1nc(-c2ccc(Cl)c(C#Cc3cccc(CNCc4ccc(Cl)cc4)c3)c2)c2c1CCN(S(C)(=O)=O)C2` [Example 439, 1-[3-({2-Chloro-5-[1-{3-[(3S)-3-methylmorpholin-4-yl]propyl}-5-(methylsulfonyl)-4,5,6,7-tetrahydro-1H-pyrazolo[4,3-c]pyridin-3-yl]phenyl}ethynyl)phenyl]-N-[(4-chlorophenyl)methyl]methanamine] reads 320 nM; that for `CC(NCc1ccc(C#Cc2cc(-c3nn(CCCN4CCN(c5ccccn5)CC4)c4c3CN(S(C)(=O)=O)CC4)ccc2Cl)cc1)c1ccccc1` (stereo not shown) [Example 219, N-({4-[(2-Chloro-5-{5-(methylsulfonyl)-1-[3-(4-pyridin-2-ylpiperazin-1-yl)propyl]-4,5,6,7-tetrahydro-1H-pyrazolo[4,3-c]pyridin-3-yl}phenyl)ethynyl]phenyl}methyl)-1-phenylethanamine], 40 nM.

In the case of `C[C@H]1COCCN1C[C@@H](O)Cn1nc(-c2ccc(Cl)c(C#Cc3ccc(CNCc4ccc(Cl)cc4)cc3)c2)c2c1CCN(C(=O)C(N)=O)C2` [Example 256, 2-{3-(4-Chloro-3-{4-[(4-chloro-benzylamino)-methyl]-phenylethynyl}-phenyl)-1-[(2R)-2-hydroxy-3-((3S)-3-methyl-morpholin-4-yl)-propyl]-1,4,6,7-tetrahydro-pyrazolo[4,3-c]pyridin-5-yl}-2-oxo-acetamide], the IC50 (CatS IC50) is 50 nM. With `NC(=O)N1CCc2c(c(-c3ccc(Cl)c(C#Cc4ccc(CNCc5ccc(Cl)cc5)cc4)c3)nn2CCCN2CCN(c3ccccc3)CC2)C1` [Example 430, 3-(4-Chloro-3-{[4-({[(4-chlorophenyl)methyl]amino}methyl)phenyl]ethynyl}phenyl)-1-[3-(4-phenylpiperazin-1-yl)propyl]-1,4,6,7-tetrahydro-5H-pyrazolo[4,3-c]pyridine-5-carboxamide], the IC50 stood at 40 nM. As to `CS(=O)(=O)N1CCc2c(c(-c3ccc(Cl)c(CCc4ccc(Cl)cc4)c3)nn2CC(O)CN2CCOCC2)C1` (stereo not shown) [Example 149, 1-(3-{4-Chloro-3-[2-(4-chloro-phenyl)-ethyl]-phenyl}-5-methanesulfonyl-4,5,6,7-tetrahydro-pyrazolo[4,3-c]pyridin-1-yl)-3-morpholin-4-yl-propan-2-ol], the IC50 is 110 nM. In the case of `CS(=O)(=O)N1CCc2c(c(-c3ccc(Cl)c(C#Cc4ccc(CNCc5cccs5)cc4)c3)nn2CCCN2CCOCC2)C1` [Example 421, 1-[4-({2-Chloro-5-[5-(methylsulfonyl)-1-(3-morpholin-4-ylpropyl)-4,5,6,7-tetrahydro-1H-pyrazolo[4,3-c]pyridin-3-yl]phenyl}ethynyl)phenyl]-N-(2-thienylmethyl)methanamine], under “CatS IC50”, the IC50 turned out to be 190 nM. For the compound `C[C@@H]1COCCN1CCCn1nc(-c2ccc(Cl)c(C#Cc3ccc(CNCc4ccc(Cl)cc4)cc3)c2)c2c1CCN(C(=O)C(N)=O)C2` [Example 620, 2-(3-{4-Chloro-3-[(4-{[(4-chlorobenzyl)amino]methyl}phenyl)ethynyl]phenyl}-1-{3-[(3R)-3-methylmorpholin-4-yl]propyl}-1,4,6,7-tetrahydro-5H-pyrazolo[4,3-c]pyridin-5-yl)-2-oxoacetamide], the IC50 turned out to be 150 nM.

For `NC(=O)N1CCc2c(c(-c3ccc(Cl)c(C#Cc4ccc(CNCc5ccc(Cl)cc5)cc4)c3)nn2CCCN2C[C@H]3COC[C@H]3C2)C1` [Example 170, 3-[4-Chloro-3-[(4-{[(4-chlorobenzyl)amino]methyl]phenyl)ethynyl]phenyl}-1-{3-[(3aR,6aS)-tetrahydro-1H-furo[3,4-c]pyrrol-5(3H)-yl]propyl}-1,4,6,7-tetrahydro-5H-pyrazolo[4,3-c]pyridine-5-carboxamide], the IC50 (CatS IC50) amounted to 50 nM. On the same count and under the same terms, then `COC(=O)[C@@H]1Cc2ccc(C#Cc3cc(-c4nn(CCCN5CCOCC5)c5c4CN(S(C)(=O)=O)CC5)ccc3Cl)cc2CN1` [Example 198, Methyl (3S)-7-({2-chloro-5-[5-(methylsulfonyl)-1-(3-morpholin-4-ylpropyl)-4,5,6,7-tetrahydro-1H-pyrazolo[4,3-c]pyridin-3-yl]phenyl}ethynyl)-1,2,3,4-tetrahydroisoquinoline-3-carboxylate], with 70 nM. Consider `CS(=O)(=O)N1CCc2c(c(-c3ccc(Cl)c(C#Cc4ccc5c(c4)CN(C4CC4)CC5)c3)nn2CCCN2CCN(c3ccccc3)CC2)C1` [Example 280, 7-[(2-Chloro-5-{5-(methylsulfonyl)-1-[3-(4-phenylpiperazin-1-yl)propyl]-4,5,6,7-tetrahydro-1H-pyrazolo[4,3-c]pyridin-3-yl}phenyl)ethynyl]-2-cyclopropyl-1,2,3,4-tetrahydroisoquinoline], for which the IC50 was determined as 40 nM. As to `CS(=O)(=O)N1CCc2c(c(-c3ccc(Cl)c(C#Cc4c[nH]cn4)c3)nn2CCCN2CCOCC2)C1` [Example 441, 3-[4-Chloro-3-(1H-imidazol-4-ylethynyl)phenyl]-5-(methylsulfonyl)-1-(3-morpholin-4-ylpropyl)-4,5,6,7-tetrahydro-1H-pyrazolo[4,3-c]pyridine], under “CatS IC50”, the IC50 stood at 3060 nM.

As to `COc1ccc(CNCc2ccc(C#Cc3cc(-c4nn(CCCN5CCOCC5)c5c4CN(S(C)(=O)=O)CC5)ccc3Cl)cc2)cc1` [Example 339, 1-[4-({2-Chloro-5-[5-(methylsulfonyl)-1-(3-morpholin-4-ylpropyl)-4,5,6,7-tetrahydro-1H-pyrazolo[4,3-c]pyridin-3-yl]phenyl}ethynyl)phenyl]-N-{[4-(methyloxy)phenyl]methyl}methanamine], the IC50 is 230 nM. As for `CC(C)Oc1ccc(CNCc2ccc(C#Cc3cc(-c4nn(CCCN5CCSCC5)c5c4CN(C(N)=O)CC5)ccc3Cl)cc2)cc1` [Example 174, 3-{4-Chloro-3-[(4-{[({4-[(1-methylethyl)oxy]phenyl}methyl)amino]methyl}phenyl)ethynyl]phenyl}-1-(3-thiomorpholin-4-ylpropyl)-1,4,6,7-tetrahydro-5H-pyrazolo[4,3-c]pyridine-5-carboxamide], under “CatS IC50”, the IC50 is 270 nM. In the case of `CN(C)c1ccc2c(n1)n(C1CCN(CC(O)Cn3nc(-c4ccc(C(F)(F)F)c(C#Cc5ccc(Cl)cc5)c4)c4c3CCN(S(C)(=O)=O)C4)CC1)c(=O)n2C` (stereo not shown) [Example 120, 3-[1-(3-{3-[3-(4-Chloro-phenylethynyl)-4-trifluoromethyl-phenyl]-5-methanesulfonyl-4,5,6,7-tetrahydro-pyrazolo[4,3-c]pyridin-1-yl}-2-hydroxy-propyl)-piperidin-4-yl]-5-dimethylamino-1-methyl-1,3-dihydro-imidazo[4,5-b]pyridin-2-one], the IC50 stood at 30 nM. For `CN1CCN(C(=O)[C@@H]2Cc3ccc(C#Cc4cc(-c5nn(CCCN6CCOCC6)c6c5CN(S(C)(=O)=O)CC6)ccc4Cl)cc3CN2)CC1` [Example 485, (3S)-7-({2-Chloro-5-[5-(methylsulfonyl)-1-(3-morpholin-4-ylpropyl)-4,5,6,7-tetrahydro-1H-pyrazolo[4,3-c]pyridin-3-yl]phenyl}ethynyl)-3-[(4-methylpiperazin-1-yl)carbonyl]-1,2,3,4-tetrahydroisoquinoline], the IC50 (CatS IC50) was 50 nM. For the compound `CS(=O)(=O)N1CCc2c(c(-c3ccc(Cl)c(C#Cc4ccc(CC(=O)O)cc4)c3)nn2CCCN2CCOCC2)C1` [Example 15, (4-{2-Chloro-5-[5-methanesulfonyl-1-(3-morpholin-4-yl-propyl)-4,5,6,7-tetrahydro-1H-pyrazolo[4,3-c]pyridin-3-yl]-phenylethynyl}-phenyl)-acetic acid, trifluoroacetic acid salt], the IC50 amounted to 150 nM. With `CN(C)CCCc1cc(-c2nn(CCCN3CCC(N4CCCC4=O)CC3)c3c2CN(S(C)(=O)=O)CC3)ccc1Cl` [Example 314, 1-(1-{3-[3-{4-Chloro-3-[3-(dimethylamino)propyl]phenyl}-5-(methylsulfonyl)-4,5,6,7-tetrahydro-1H-pyrazolo[4,3-c]pyridin-1-yl]propyl}piperidin-4-yl)pyrrolidin-2-one], the concentration for half-maximal inhibition (IC50) stood at 3660 nM. As to `CS(=O)(=O)NCCCc1cc(-c2nn(CCCN3CCOCC3)c3c2CN(S(C)(=O)=O)CC3)ccc1Cl` [Example 80, N-(3-{2-Chloro-5-[5-methanesulfonyl-1-(3-morpholin-4-yl-propyl)-4,5,6,7-tetrahydro-1H-pyrazolo[4,3-c]pyridin-3-yl]-phenyl}-propyl)-methanesulfonamide], the IC50 came to 9930 nM. On to `C[C@H]1COCCN1CCCn1nc(-c2ccc(Cl)c(C#Cc3ccc(Cl)c(CNCc4ccccc4)c3)c2)c2c1CCN(S(C)(=O)=O)C2` [Example 286, 1-[2-Chloro-5-({2-chloro-5-[1-{3-[(3S)-3-methylmorpholin-4-yl]propyl}-5-(methylsulfonyl)-4,5,6,7-tetrahydro-1H-pyrazolo[4,3-c]pyridin-3-yl]phenyl}ethynyl)phenyl]-N-(phenylmethyl)methanamine], for which the IC50 (CatS IC50) came to 30 nM. On the same count and under the same terms, then `CSc1ccc(CNCc2ccc(C#Cc3cc(-c4nn(CCCN5CCSCC5)c5c4CN(C(N)=O)CC5)ccc3Cl)cc2)cc1` [Example 550, 3-[4-Chloro-3-({4-[({[4-(methylsulfanyl)phenyl]methyl}amino)methyl]phenyl}ethynyl)phenyl]-1-(3-thiomorpholin-4-ylpropyl)-1,4,6,7-tetrahydro-5H-pyrazolo[4,3-c]pyridine-5-carboxamide], with 100 nM; and `CS(=O)(=O)c1ccc(CNCc2cccc(C#Cc3cc(-c4nn(CCCN5CCOCC5)c5c4CN(S(C)(=O)=O)CC5)ccc3Cl)c2)cc1` [Example 524, 1-[3-({2-Chloro-5-[5-(methylsulfonyl)-1-(3-morpholin-4-ylpropyl)-4,5,6,7-tetrahydro-1H-pyrazolo[4,3-c]pyridin-3-yl]phenyl}ethynyl)phenyl]-N-{[4-(methylsulfonyl)phenyl]methyl}methanamine], with 530 nM.
